Reference: patent US20090023775A1, “1-[2-(4-BENZYL-4-HYDROXY-PIPERIDIN-1 -YL )-ETHYL]-3-(2-METHYL-QUINOLIN- 4-YL)- UREA AS CRYSTALLINE SULFATE SALT” (Actelion Pharmaceuticals Ltd., priority 2004, published 2009)

Experiments:
[1] = Dynamic vapor sorption (DVS), gravimetric measurement under controlled relative humidity; format: physicochemical
Protocol: X-ray diffraction patterns (XRD) were recorded on a Bruker D5000, using a Cu-Kalpha (1.5418 Å) source, a 40 kV -30 mA generator, in a range of 3 et 40° (2theta). DVS is performed as gravimetric measurement (10-30 mg of sample), at a given temperature, under controlled relative humidity. Measurements are performed on a SMS (Surface Measurement Systems) DVS 1000. First, the sample is dried (0% RH) under dry nitrogen at the experiment temperature. Then a cycle of relative humidity (RH) is applied to the sample (generally increase by steps e.g. 20, 40, 60 and 80% RH and decrease to 0% RH by the same steps). The duration of each step of RH is sufficient to reach a weight equilibrium.
Table 2 summarizes the results of two cycles (0 to 85% relative humidity) in a DVS measurement (40° C.) of 1-[2-(4-benzyl-4-hydroxy-piperidin-1-yl)-ethyl]-3-(2-methyl-quinolin-4-yl)-urea sulfate trihydrate described in Example 1.
Table 4 summarizes the results of three cycles (0 to 85% relative humidity) in a DVS measurement (25° C.) of 1-[2-(4-benzyl-4-hydroxy-piperidin-1-yl)-ethyl]-3-(2-methyl-quinolin-4-yl)-urea sulfate trihydrate described in Example 2.

[2] = Behaviour of the free base at higher temperature and higher humidity; format: physicochemical
From the text: Therefore, the said compound of formula I as free base is not suitable as a pharmaceutical product since it is not easy to handle in pharmaceutical preparations. In addition, large scale production and storage of the said compound of formula I causes problems due to the properties mentioned above.

urotensin II receptor = biological target: T1, urotensin II receptor (Homo sapiens, UniProt Q9UKP6); settings: Clozel et al., J. Pharmcol. Exp. Ther. 2004, 311, 204-212; cited from earlier work
T1 sequence (Q9UKP6 1-389): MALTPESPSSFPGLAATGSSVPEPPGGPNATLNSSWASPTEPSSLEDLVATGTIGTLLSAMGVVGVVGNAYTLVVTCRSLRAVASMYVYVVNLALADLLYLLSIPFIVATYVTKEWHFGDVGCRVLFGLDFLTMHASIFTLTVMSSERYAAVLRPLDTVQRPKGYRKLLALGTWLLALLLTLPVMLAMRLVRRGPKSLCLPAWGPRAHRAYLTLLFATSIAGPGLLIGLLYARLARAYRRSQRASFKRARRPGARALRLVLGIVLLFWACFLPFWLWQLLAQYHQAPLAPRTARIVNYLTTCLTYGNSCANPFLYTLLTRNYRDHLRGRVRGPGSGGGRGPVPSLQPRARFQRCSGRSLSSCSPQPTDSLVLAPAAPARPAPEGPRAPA

[3] = DVS 40° C., Cycle 1, target RH 0.0%
[4] = DVS 40° C., Cycle 1, target RH 20.0%
[5] = DVS 40° C., Cycle 1, target RH 40.0%
[6] = DVS 40° C., Cycle 1, target RH 60.0%
[7] = DVS 40° C., Cycle 1, target RH 85.0%
[8] = DVS 40° C., Cycle 2, target RH 0.0%
[9] = DVS 40° C., Cycle 2, target RH 20.0%
[10] = DVS 40° C., Cycle 2, target RH 40.0%
[11] = DVS 40° C., Cycle 2, target RH 60.0%
[12] = DVS 40° C., Cycle 2, target RH 85.0%
[13] = DVS 25° C., Cycle 1, target RH 0.0%
[14] = DVS 25° C., Cycle 1, target RH 20.0%
[15] = DVS 25° C., Cycle 1, target RH 40.0%
[16] = DVS 25° C., Cycle 1, target RH 60.0%
[17] = DVS 25° C., Cycle 1, target RH 85.0%
[18] = DVS 25° C., Cycle 2, target RH 0.0%
[19] = DVS 25° C., Cycle 2, target RH 20.0%
[20] = DVS 25° C., Cycle 2, target RH 40.0%
[21] = DVS 25° C., Cycle 2, target RH 60.0%
[22] = DVS 25° C., Cycle 2, target RH 85.0%
[23] = DVS 25° C., Cycle 3, target RH 0.0%
[24] = DVS 25° C., Cycle 3, target RH 85.0%
[25] = higher temperature and higher humidity

Cc1cc(NC(=O)NCCN2CCC(O)(Cc3ccccc3)CC2)c2ccccc2n1.O.O.O.O=S(=O)(O)O [Example 1, 1-[2-(4-Benzyl-4-hydroxy-piperidin-1-yl)-ethyl]-3-(2-methyl-quinolin-4-yl)-urea Sulfate Trihydrate]
Change In Mass (%) Desorption [1, 3]: −0.02% | Change In Mass (%) Sorption [1, 3]: 0.00% | Change In Mass (%) Desorption [1, 4]: 9.97% | Change In Mass (%) Hysteresis [1, 4]: 0.26% | Change In Mass (%) Sorption [1, 4]: 9.71% | Change In Mass (%) Desorption [1, 5]: 10.26% | Change In Mass (%) Hysteresis [1, 5]: 0.03% | Change In Mass (%) Sorption [1, 5]: 10.23% | Change In Mass (%) Desorption [1, 6]: 10.40% | Change In Mass (%) Hysteresis [1, 6]: −0.02% | Change In Mass (%) Sorption [1, 6]: 10.42% | Change In Mass (%) Desorption [1, 7]: 10.68% | Change In Mass (%) Sorption [1, 7]: 10.68% | Change In Mass (%) Desorption [1, 8]: −0.02% | Change In Mass (%) Sorption [1, 8]: −0.02% | Change In Mass (%) Desorption [1, 9]: 9.98% | Change In Mass (%) Hysteresis [1, 9]: 0.17% | Change In Mass (%) Sorption [1, 9]: 9.81% | Change In Mass (%) Desorption [1, 10]: 10.28% | Change In Mass (%) Hysteresis [1, 10]: 0.02% | Change In Mass (%) Sorption [1, 10]: 10.26% | Change In Mass (%) Desorption [1, 11]: 10.42% | Change In Mass (%) Hysteresis [1, 11]: 0.01% | Change In Mass (%) Sorption [1, 11]: 10.42% | Change In Mass (%) Desorption [1, 12]: 10.68% | Change In Mass (%) Sorption [1, 12]: 10.68%

Cc1cc(NC(=O)NCCN2CCC(O)(Cc3ccccc3)CC2)c2ccccc2n1.O.O.O.O=S(=O)(O)O [Example 2, 1-[2-(4-Benzyl-4-hydroxy-piperidin-1-yl)-ethyl]-3-(2-methyl-quinolin-4-yl)-urea Sulfate Trihydrate]
Change In Mass (%) Desorption [1, 13]: −0.01% | Change In Mass (%) Sorption [1, 13]: 0.00% | Change In Mass (%) Desorption [1, 14]: 11.94% | Change In Mass (%) Hysteresis [1, 14]: 0.57% | Change In Mass (%) Sorption [1, 14]: 11.38% | Change In Mass (%) Desorption [1, 15]: 12.31% | Change In Mass (%) Hysteresis [1, 15]: 0.32% | Change In Mass (%) Sorption [1, 15]: 12.00% | Change In Mass (%) Desorption [1, 16]: 12.49% | Change In Mass (%) Hysteresis [1, 16]: 0.08% | Change In Mass (%) Sorption [1, 16]: 12.41% | Change In Mass (%) Desorption [1, 17]: 12.70% | Change In Mass (%) Sorption [1, 17]: 12.70% | Change In Mass (%) Desorption [1, 18]: 0.00% | Change In Mass (%) Sorption [1, 18]: −0.01% | Change In Mass (%) Desorption [1, 19]: 11.95% | Change In Mass (%) Hysteresis [1, 19]: 0.43% | Change In Mass (%) Sorption [1, 19]: 11.52% | Change In Mass (%) Desorption [1, 20]: 12.32% | Change In Mass (%) Hysteresis [1, 20]: 0.25% | Change In Mass (%) Sorption [1, 20]: 12.06% | Change In Mass (%) Desorption [1, 21]: 12.49% | Change In Mass (%) Hysteresis [1, 21]: 0.07% | Change In Mass (%) Sorption [1, 21]: 12.41% | Change In Mass (%) Desorption [1, 22]: 12.70% | Change In Mass (%) Sorption [1, 22]: 12.70% | Change In Mass (%) Desorption [1, 23]: 0.08% | Change In Mass (%) Sorption [1, 23]: 0.00% | Change In Mass (%) Sorption ([1]; DVS 25° C., Cycle 3, target RH 20.0%): 11.55% | Change In Mass (%) Sorption ([1]; DVS 25° C., Cycle 3, target RH 40.0%): 12.07% | Change In Mass (%) Sorption ([1]; DVS 25° C., Cycle 3, target RH 60.0%): 12.40% | Change In Mass (%) Desorption [1, 24]: 12.69% | Change In Mass (%) Sorption [1, 24]: 12.69%

Cc1cc(NC(=O)NCCN2CCC(O)(Cc3ccccc3)CC2)c2ccccc2n1 [formula I, 1-[2-(4-Benzyl-4-hydroxy-piperidin-1-yl)-ethyl]-3-(2-methyl-quinolin-4-yl)-urea]
hygroscopicity [2]: hygroscopic | agglomeration [2, 25]: agglomerates to a substance cake | colour stability [2, 25]: its colour changes at higher temperature and higher humidity | urotensin II receptor antagonist activity (urotensin II receptor): potent urotensin II receptor antagonist
